One data set concerns the target T1, rCYP2C19 (Homo sapiens, UniProt P33261).
T1 construct: purchased Cypex, Ltd; host or cells: Escherichia coli
The data set can be described thus: Reaction phenotyping with rCYP2C19. The class given is in vitro ADME. To be noted: rCYP2C19, 60 min. The protocol:
(§1) For FFA and nFFA reaction phenotyping experiments, LC‐MS/MS experiments were performed using an API 4000 QTRAP or QTRAP 5500 mass spectrometer (SCIEX) with positive electrospray ionization. Chromatography was performed using an Atlantis dC18 analytical column (100 × 2.1 mm, 5 µm; Waters Corporation). Mobile phases were 0.2% v/v formic acid in water and 0.2% v/v formic acid in methanol. FFA and nFFA were eluted at a flow rate of 0.5 mL/min with a linear gradient of 40%−95% methanol from 0.20−2.1 min. The mass transitions monitored were 232.0>109.0 for FFA, 204.0>159.0 for nFFA, 348.0>330.0 for 1’‐hydroxymidazolam‐d4 internal standard (FFA reaction phenotyping), and 262.0>244.0 for hydroxybupropion‐d6 internal standard (nFFA reaction phenotyping). Analyst Instrument Control and Data Processing software (v. 1.6.1) was used for collecting and integrating data (SCIEX). Calibration curves ranging from 1.25 µM−0.01 µM were used to quantify nFFA. Relative quantitation was used to approximate the amount of FFA test material used.
Methods used to evaluate the role of CYP450s in the metabolism of FFA have been described.[22], [23], [24] […] Supernatant fractions were analyzed by LC‐MS/MS.

A further data set deals with other rCYP450s. Nature of the data set: Reaction phenotyping, other rCYP450s of the panel (not given). Type of data set: in vitro ADME, human. The protocol: as §1
Methods used to evaluate the role of CYP450s in the metabolism of FFA have been described.[22], [23], [24] To determine whether FFA and nFFA were substrates for specific CYP450s, either FFA (1 and 10 μM) or nFFA (0.1 and 1 μM) was incubated via a Tecan Liquid Handling System (Tecan Life Sciences, Männedorf, Switzerland) in duplicate with 25 pmol of rCYP1A2, rCYP2B6, rCYP2C8, rCYP2C9, rCYP2C19, rCYP2D6, or rCYP3A4, and incubation at 37°C. The 200‐μL incubation mixtures contained potassium phosphate buffer (50 mM, pH 7.4), MgCl2 (3 mM), and EDTA (1 mM, pH 7.4), and an NADPH‐generating system. Incubations of FFA with control bactosomes and membranes containing human NADPH‐CYP450 oxidoreductase, but not human CYP450 (reductase control), served as negative controls. FFA or nFFA was added to the incubation mixtures in water (1% v/v). […] Supernatant fractions were analyzed by LC‐MS/MS.

A further data set has as its target T2, MATE2‐K (Homo sapiens, UniProt Q86VL8).
T2 construct: host or cells: HEK293
Nature of the data set: Transporter substrate determination, uptake in HEK293-MATE2K cells. Type of data set: in vitro ADME. The settings on record: for Maximum Ratio (uptake in transporter‐expressing cells to empty‐vector control cells): HEK293‐MATE2K, 0.1, 1, 10 µM, threshold ≥2‐fold; for substrate of the transporter: MATE2‐K. On the procedure: LC‐MS/MS analyses to assess metabolic stability and identify the transporter substrate were performed using an API 4000 QTRAP mass spectrometer (SCIEX, Framingham, MA) with electrospray ionization in positive mode. Chromatography was performed using an Atlantis dC18 analytical column (100 × 2.1 mm, 5 µm; Waters Corporation, Milford, MA). Mobile phases were 0.2% v/v formic acid in water and 0.2% v/v formic acid in acetonitrile. For metabolic stability experiments, FFA and metabolites were eluted at a flow rate of 0.6 mL/min, with a linear gradient of 20%−80% acetonitrile from 0.30−2.0 min. For transporter substrate experiments, the gradient was slightly modified to achieve suitable chromatography. The mass transitions monitored were 232.0 > 159.0 for FFA and 348.0 > 330.0 for 1ʹ‐OH‐midazolam‐d4 internal standard.
FFA and nFFA were evaluated as substrates of the transporters breast cancer resistance protein (BCRP), organic anion transporter (OAT)1, OAT3, organic cation transporter (OCT)2, MATE1, MATE2‐K, and P‐glycoprotein multidrug transporter (P‐gp; also known as MDR1 and ABCB1), according to published methods.[25], [26], [27], [28], [29] Madin‐Darby canine kidney (MDCKII)‐BCRP cells (Netherlands Cancer Institute, Amsterdam, Netherlands) or human embryonic kidney (HEK)293 cells transfected with other transporters (Sekisui Medical Co., Ltd., Tokyo, Japan) were used. Transporter‐transfected and control cells were incubated with FFA or nFFA (0.1, 1, or 10 μM), and the amount of FFA and nFFA accumulated in the cells was measured by LC‐MS/MS as described above. The accumulation of positive control substrates in the presence and absence of an inhibitor served as a positive control for transporter function. […] BCRP substrate determination was made by bi‐directional permeability across MDCKII‐BCRP and control cells cultured on 24‐well transwell plates. Incubation medium containing probe substrate was added. Ten minutes later, transepithelial electrical resistance (TEER) was recorded and cells were preincubated at 37 ± 2°C for 30−60 min before FFA or nFFA or positive control substrate with the solvent control or positive control inhibitor was added to the donor (apical) chamber. […] Samples containing FFA, nFFA, or probe substrate were mixed with internal standard and analyzed by LC‐MS/MS. […] An aliquot was added to 96‐well plate containing scintillation fluid that was analyzed by a MicroBeta^2 scintillation counter (Perkin Elmer, Waltham, MA). Protein concentration was determined by a bicinchoninic acid (BCA) protein assay according to the manufacturer’s protocol (Thermo Fisher Scientific, Waltham, MA). Non‐radiolabeled compounds were resuspended in a 50:50 v/v methanol:water solution containing internal standard and were analyzed by LC‐MS/MS. […]

The conditions of data set [1]: clobazam, and valproate, healthy subjects, cited from earlier work.

T2 sequence (Q86VL8 1-566 isoform Q86VL8-3): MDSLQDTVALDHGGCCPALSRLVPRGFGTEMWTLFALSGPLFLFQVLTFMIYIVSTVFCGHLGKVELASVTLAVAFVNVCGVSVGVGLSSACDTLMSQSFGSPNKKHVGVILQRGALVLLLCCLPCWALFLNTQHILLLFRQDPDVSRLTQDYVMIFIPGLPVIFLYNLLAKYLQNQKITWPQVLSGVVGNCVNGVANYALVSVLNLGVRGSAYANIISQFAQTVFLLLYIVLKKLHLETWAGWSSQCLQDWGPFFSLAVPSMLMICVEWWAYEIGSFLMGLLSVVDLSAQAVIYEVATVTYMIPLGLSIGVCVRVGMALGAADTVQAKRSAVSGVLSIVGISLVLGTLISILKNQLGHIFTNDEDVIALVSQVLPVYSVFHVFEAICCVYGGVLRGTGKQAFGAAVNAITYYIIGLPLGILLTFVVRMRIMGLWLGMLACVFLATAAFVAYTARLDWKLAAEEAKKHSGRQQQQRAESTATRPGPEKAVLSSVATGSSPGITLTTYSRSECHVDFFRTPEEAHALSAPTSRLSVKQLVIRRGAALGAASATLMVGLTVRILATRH
T1 sequence (P33261 whole entry): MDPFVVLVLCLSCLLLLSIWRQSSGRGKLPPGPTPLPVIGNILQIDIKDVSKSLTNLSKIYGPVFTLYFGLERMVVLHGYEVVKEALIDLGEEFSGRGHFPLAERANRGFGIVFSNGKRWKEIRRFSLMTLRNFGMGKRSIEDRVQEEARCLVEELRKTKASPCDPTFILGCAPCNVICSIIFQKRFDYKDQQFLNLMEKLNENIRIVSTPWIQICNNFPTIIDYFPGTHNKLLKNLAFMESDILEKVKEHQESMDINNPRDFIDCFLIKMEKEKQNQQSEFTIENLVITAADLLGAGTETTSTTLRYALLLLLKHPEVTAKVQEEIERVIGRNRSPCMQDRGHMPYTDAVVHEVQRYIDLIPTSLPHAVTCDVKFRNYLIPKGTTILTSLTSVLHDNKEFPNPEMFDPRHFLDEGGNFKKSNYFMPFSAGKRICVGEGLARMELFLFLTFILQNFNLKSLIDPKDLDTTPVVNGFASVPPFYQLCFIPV

On to `CCNC(C)Cc1cccc(C(F)(F)F)c1` (racemic) [FFA, (RS)‐ethyl (α‐methyl‐3‐trifluoromethylphenethyl)amine], for which the “Disappearance of FFA” value at rCYP2C19 (1 μM FFA) was 49%. The molecule further had an FFA loss at rCYP2C19 (10 μM FFA) of 50%. Besides, the FFA loss with other rCYP450s (1 μM FFA, rCYP450s other than rCYP2D6, rCYP2C19, rCYP1A2) is on record as less than 10%. In addition, the substrate loss with other rCYP450s (10 μM FFA, rCYP450s other than rCYP2D6, rCYP2C19, rCYP1A2, rCYP2B6) was less than 15%. Further, on MATE2‐K, the “Maximum Ratio (uptake in transporter‐expressing cells to empty‐vector control cells)” value came to 1.40 and the “substrate of the transporter” value is reported as “not substrates”. Besides, the “effect on Cmax, AUC0‐t, and AUC0‐∞ of FFA” value in data set [1] (co‐administered with stiripentol) is “increasing”.

In the case of `CC(N)Cc1cccc(C(F)(F)F)c1.Cl` (centres unmarked) [nFFA, 1‐(3‐(trifluoromethyl)phenyl)propan‐2‐amine hydrochloride], the “contribution to nFFA metabolism” value in the data set on other rCYP450s (nFFA 0.1 μM and 1 μM, enzymes other than rCYP1A2, rCYP2B6, rCYP2C19, rCYP2D6) is on record as “smaller contributions”. At MATE2‐K, the “Maximum Ratio (uptake in transporter‐expressing cells to empty‐vector control cells)” value worked out at 1.50 and the “substrate of the transporter” value was “not substrates”. The “effect on Cmax and AUC0‐t of nFFA” value in data set [1] (FFA co‐administered with stiripentol) is given as “reduced”.

The values are drawn from publication PMC9124820, “In vitro evaluation of fenfluramine and norfenfluramine as victims of drug interactions” (Pharmacology Research & Perspectives, 2022).
